Patent US7566712B2, “Biaryl piperazinyl-pyridine analogues” (Neurogen Corporation, priority 2003, dated 2009)
pIC50: −log10 of the molar value.

Molecular target: T1, human capsaicin receptor (Homo sapiens, UniProt Q8NER1)
T1 construct: pBK-CMV expression construct encoding the full length human capsaicin receptor; expressed in transfected cells
Test: Calcium mobilization assay, determination of antagonist activity (Example 6)
Assay type: cell-based
Settings: Table II; IC50 determined as described in Example 6
Method: A cDNA encoding full length human capsaicin receptor (SEQ ID NO: 1, 2 or 3 of U.S. Pat. No. 6,482,611) was subcloned in the plasmid pBK-CMV (Stratagene, La Jolla, Calif.) for recombinant expression in mammalian cells.
Human embryonic kidney (HEK293) cells were transfected with the pBK-CMV expression construct encoding the full length human capsaicin receptor using standard methods. The transfected cells were selected for two weeks in media containing G418 (400 μg/ml) to obtain a pool of stably transfected cells. Independent clones were isolated from this pool by limiting dilution to obtain clonal stable cell lines for use in subsequent experiments.
This Example illustrates representative calcium mobilization assays for use in evaluating test compounds for agonist and antagonist activity.
Cells transfected with expression plasmids (as described in Example 4) and thereby expressing human capsaicin receptor are seeded and grown to 70-90% confluency in FALCON black-walled, clear-bottomed 96-well plates (#3904, BECTON-DICKINSON, Franklin Lakes, N.J.). The culture medium is emptied from the 96 well plates and FLUO-3 AM calcium sensitive dye (Molecular Probes, Eugene, Oreg.) is added to each well (dye solution: 1 mg FLUO-3 AM, 440 μL DMSO and 440 pi 20% pluronic acid in DMSO, diluted 1:250 in Krebs-Ringer HEPES (KRH) buffer (25 mM HEPES, 5 mM KCl, 0.96 mM NaH2PO4, 1 mM MgSO4, 2 mM CaCl2, 5 mM glucose, 1 mM probenecid, pH 7.4), 50 μl diluted solution per well). Plates are covered with aluminum foil and incubated at 37° C. for 1-2 hours in an environment containing 5% CO2. After the incubation, the dye is emptied from the plates, and the cells are washed once with KRH buffer, and resuspended in KRH buffer.
To measure the ability of a test compound to agonize or antagonize a calcium mobilization response in cells expressing capsaicin receptors to capsaicin or other vanilloid agonist, the EC50 of the agonist capsaicin is first determined. An additional 20 μl of KRH buffer and 1 μl DMSO is added to each well of cells, prepared as described above. 100 μl capsaicin in KRH buffer is automatically transferred by the FLIPR instrument to each well. Capsaicin-induced calcium mobilization is monitored using either FLUOROSKAN ASCENT (Labsystems; Franklin, Mass.) or FLIPR (fluorometric imaging plate reader system; Molecular Devices, Sunnyvale, Calif.) instruments. Data obtained between 30 and 60 seconds after agonist application are used to generate an 8-point concentration response curve, with final capsaicin concentrations of 1 nM to 3 μM. KALEIDAGRAPH software (Synergy Software, Reading, Pa.) is used to fit the data to the equation: y=a*(1/(1+(b/x)^c)) to determine the 50% excitatory concentration (EC50) for the response. In this equation, y is the maximum fluorescence signal, x is the concentration of the agonist or antagonist (in this case, capsaicin), a is the Emax, b corresponds to the EC50 value and c is the Hill coefficient. Determination of Agonist Activity
Test compounds are dissolved in DMSO, diluted in 20 μl KRH buffer so that the final concentration of test compounds in the assay well is between 1 μM and 5 μM, and added to cells prepared as described above. The 96 well plates containing prepared cells and test compounds are incubated in the dark, at room temperature for 0.5 to 6 hours. It is important that the incubation not continue beyond 6 hours. Just prior to determining the fluorescence response, 100 pi capsaicin in KRH buffer at twice the EC50 concentration determined as described above is automatically added by the FLIPR instrument to each well of the 96 well plate for a final sample volume of 200 μl and a final capsaicin concentration equal to the EC50. The final concentration of test compounds in the assay wells is between 1 μM and 5 μM. […]

T1 sequence (Q8NER1 whole entry): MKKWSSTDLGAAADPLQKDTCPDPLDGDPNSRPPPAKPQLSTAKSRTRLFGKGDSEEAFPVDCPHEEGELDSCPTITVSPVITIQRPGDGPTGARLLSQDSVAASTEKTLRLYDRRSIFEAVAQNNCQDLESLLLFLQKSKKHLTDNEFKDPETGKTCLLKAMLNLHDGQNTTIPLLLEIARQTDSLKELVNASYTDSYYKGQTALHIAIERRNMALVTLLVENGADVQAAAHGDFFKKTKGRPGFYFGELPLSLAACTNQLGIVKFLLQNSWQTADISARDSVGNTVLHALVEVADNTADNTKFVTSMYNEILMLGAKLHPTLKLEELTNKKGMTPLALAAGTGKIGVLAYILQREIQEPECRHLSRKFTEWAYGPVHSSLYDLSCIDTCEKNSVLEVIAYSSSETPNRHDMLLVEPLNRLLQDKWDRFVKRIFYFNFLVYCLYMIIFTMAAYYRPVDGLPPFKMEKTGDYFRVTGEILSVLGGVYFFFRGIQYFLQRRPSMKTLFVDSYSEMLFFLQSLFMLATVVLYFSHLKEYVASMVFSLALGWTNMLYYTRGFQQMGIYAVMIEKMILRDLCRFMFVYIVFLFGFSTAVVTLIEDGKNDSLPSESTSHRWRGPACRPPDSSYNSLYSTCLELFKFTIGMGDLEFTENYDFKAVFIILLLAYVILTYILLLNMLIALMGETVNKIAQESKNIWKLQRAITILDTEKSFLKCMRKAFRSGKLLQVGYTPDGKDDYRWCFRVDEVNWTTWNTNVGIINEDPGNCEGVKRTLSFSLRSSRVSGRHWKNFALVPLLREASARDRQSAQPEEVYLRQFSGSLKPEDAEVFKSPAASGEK

`C=CCN1CCN(c2nc(-c3cccc(Cl)c3)nc(N3CCN(c4ncccc4C(F)(F)F)CC3)n2)CC1` [Example 441, 2-(4-allylpiperazin-1-yl)-4-(3-chlorophenyl)-6-{4-[3-(trifluoromethyl)pyridin-2-yl]piperazin-1-yl}-1,3,5-triazine] was tested, and the pIC50 was ≥ 6.00.

For `CCCCN1CCN(c2nc(-c3cccc(Cl)c3)nc(N3CCN(c4ncccc4C(F)(F)F)CC3)n2)CC1` [Example 444, 2-(4-butylpiperazin-1-yl)-4-(3-chlorophenyl)-6-{4-[3-(trifluoromethyl)pyridin-2-yl]piperazin-1-yl}-1,3,5-triazine], the pIC50 was ≥ 6.00.

In the case of `C=CCN1CCN(c2nc(-c3ccc(Cl)cc3)nc(N3CCN(c4ncccc4C(F)(F)F)CC3)n2)CC1` [Example 445, 2-(4-allylpiperazin-1-yl)-4-(4-chlorophenyl)-6-{4-[3-(trifluoromethyl)pyridin-2-yl]piperazin-1-yl}-1,3,5-triazine], the pIC50 was ≥ 6.00.

`C=CCN1CCN(c2nc(-c3ccc(F)cc3)nc(N3CCN(c4ncccc4C(F)(F)F)CC3)n2)CC1` [Example 446, 2-(4-allylpiperazin-1-yl)-4-(4-fluorophenyl)-6-{4-[3-(trifluoromethyl)pyridin-2-yl]piperazin-1-yl}-1,3,5-triazine] was tested, and the pIC50 was ≥ 6.00.

For `C=CCN1CCN(c2nc(-c3cccc(F)c3)nc(N3CCN(c4ncccc4C(F)(F)F)CC3)n2)CC1` [Example 448, 2-(4-allylpiperazin-1-yl)-4-(3-fluorophenyl)-6-{4-[3-(trifluoromethyl)pyridin-2-yl]piperazin-1-yl}-1,3,5-triazine], the pIC50 was ≥ 6.00.

With `C=CCN1CCN(c2nc(-c3ccc(F)c(C)c3)nc(N3CCN(c4ncccc4C(F)(F)F)CC3)n2)CC1` [Example 450, 2-(4-allylpiperazin-1-yl)-4-(4-fluoro-3-methylphenyl)-6-{4-[3-(trifluoromethyl)pyridin-2-yl]piperazin-1-yl}-1,3,5-triazine] the pIC50 was ≥ 6.00.

In the case of `CCCCN1CCN(c2nc(-c3ccc(F)c(C)c3)nc(N3CCN(c4ncccc4C(F)(F)F)CC3)n2)CC1` [Example 452, 2-(4-butylpiperazin-1-yl)-4-(4-fluoro-3-methylphenyl)-6-{4-[3-(trifluoromethyl)pyridin-2-yl]piperazin-1-yl}-1,3,5-triazine], the pIC50 was ≥ 6.00.

`C=CCN1CCN(c2nc(-c3cccc(C)c3)nc(N3CCN(c4ncccc4C(F)(F)F)CC3)n2)CC1` [Example 453, 2-(4-allylpiperazin-1-yl)-4-(3-methylphenyl)-6-{4-[3-(trifluoromethyl)pyridin-2-yl]piperazin-1-yl}-1,3,5-triazine] was tested, and the pIC50 was ≥ 6.00.

With `C[C@@H]1CN(c2ncccc2C(F)(F)F)CCN1c1cc(-c2ccccc2)nc(N2CCOCC2)n1` [Example 478, 4-(4-{(2R)-2-methyl-4-[3-(trifluoromethyl)pyridin-2-yl]piperazin-1-yl}-6-phenylpyrimidin-2-yl)morpholine] the pIC50 was ≥ 6.00.

In the case of `C[C@@H]1CN(c2ncccc2Cl)CCN1c1cc(-c2ccccc2)nc(N2CCOCC2)n1` [Example 479, 4-{4-[(2R)-4-(3-chloropyridin-2-yl)-2-methylpiperazin-1-yl]-6-phenylpyrimidin-2-yl}morpholine], the pIC50 was ≥ 6.00.

With `Cc1cccnc1N1CCN(c2cc(-c3cccc(Cl)c3)nc(N3CCOCC3)n2)[C@H](C)C1` [Example 480, 4-{4-(3-chlorophenyl)-6-[(2R)-2-methyl-4-(3-methylpyridin-2-yl)piperazin-1-yl]pyrimidin-2-yl}morpholine] the pIC50 was ≥ 6.00.

With `C[C@@H]1CN(c2ncccc2Cl)CCN1c1cc(-c2cccc(Cl)c2)nc(N2CCOCC2)n1` [Example 481, 4-{4-(3-chlorophenyl)-6-[(2R)-4-(3-chloropyridin-2-yl)-2-methylpiperazin-1-yl]pyrimidin-2-yl}morpholine] the pIC50 was ≥ 6.00.

`C[C@@H]1CN(c2ncccc2C#N)CCN1c1cc(-c2ccc(Cl)cc2)nc(N2CCOCC2)n1` [Example 482, 2-{(3R)-4-[6-(4-chlorophenyl)-2-morpholin-4-ylpyrimidin-4-yl]-3-methylpiperazin-1-yl}nicotinonitrile] was tested, and the pIC50 was ≥ 6.00.

`Cc1cccnc1N1CCN(c2cc(-c3ccc(Cl)cc3)nc(N3CCOCC3)n2)[C@H](C)C1` [Example 483, 4-{4-(4-chlorophenyl)-6-[(2R)-2-methyl-4-(3-methylpyridin-2-yl)piperazin-1-yl]pyrimidin-2-yl}morpholine] was tested, and the pIC50 was ≥ 6.00.

In the case of `C[C@@H]1CN(c2ncccc2C(F)(F)F)CCN1c1cc(-c2ccc(Cl)cc2)nc(N2CCOCC2)n1` [Example 484, 4-(4-(4-chlorophenyl)-6-{(2R)-2-methyl-4-[3-(trifluoromethyl)pyridin-2-yl]piperazin-1-yl}pyrimidin-2-yl)morpholine], the pIC50 was ≥ 6.00.

`C[C@@H]1CN(c2ncccc2Cl)CCN1c1cc(-c2ccc(Cl)cc2)nc(N2CCOCC2)n1` [Example 485, 4-{4-(4-chlorophenyl)-6-[(2R)-4-(3-chloropyridin-2-yl)-2-methylpiperazin-1-yl]pyrimidin-2-yl}morpholine] was tested, and the pIC50 was ≥ 6.00.

`C[C@@H]1CN(c2ncccc2C#N)CCN1c1cc(-c2ccc(F)cc2)nc(N2CCOCC2)n1` [Example 486, 2-{(3R)-4-[6-(4-fluorophenyl)-2-morpholin-4-ylpyrimidin-4-yl]-3-methylpiperazin-1-yl}nicotinonitrile] was tested, and the pIC50 was ≥ 6.00.

In the case of `C[C@@H]1CN(c2ncccc2Cl)CCN1c1cc(-c2ccc(F)cc2)nc(N2CCOCC2)n1` [Example 487, 4-[4-[(2R)-4-(3-chloropyridin-2-yl)-2-methylpiperazin-1-yl]-6-(4-fluorophenyl)pyrimidin-2-yl]morpholine], the pIC50 was ≥ 6.00.

For `C[C@@H]1CN(c2ncccc2Cl)CCN1c1cc(-c2cccc(F)c2)nc(N2CCOCC2)n1` [Example 488, 4-[4-[(2R)-4-(3-chloropyridin-2-yl)-2-methylpiperazin-1-yl]-6-(3-fluorophenyl)pyrimidin-2-yl]morpholine], the pIC50 was ≥ 6.00.

`C[C@@H]1CN(c2ncccc2C#N)CCN1c1cc(-c2ccc3ccccc3c2)nc(N2CCOCC2)n1` [Example 489, 2-{(3R)-3-methyl-4-[2-morpholin-4-yl-6-(2-naphthyl)pyrimidin-4-yl]piperazin-1-yl}nicotinonitrile] was tested, and the pIC50 was ≥ 6.00.

In the case of `Cc1cccnc1N1CCN(c2cc(-c3ccc4ccccc4c3)nc(N3CCOCC3)n2)[C@H](C)C1` [Example 490, 4-[4-[(2R)-2-methyl-4-(3-methylpyridin-2-yl)piperazin-1-yl]-6-(2-naphthyl)pyrimidin-2-yl]morpholine], the pIC50 was ≥ 6.00.

In the case of `C[C@@H]1CN(c2ncccc2C(F)(F)F)CCN1c1cc(-c2ccc3ccccc3c2)nc(N2CCOCC2)n1` [Example 491, 4-[4-{(2R)-2-methyl-4-[3-(trifluoromethyl)pyridin-2-yl]piperazin-1-yl}-6-(2-naphthyl)pyrimidin-2-yl]morpholine], the pIC50 was ≥ 6.00.

For `C[C@@H]1CN(c2ncccc2Cl)CCN1c1cc(-c2ccc3ccccc3c2)nc(N2CCOCC2)n1` [Example 492, 4-[4-[(2R)-4-(3-chloropyridin-2-yl)-2-methylpiperazin-1-yl]-6-(2-naphthyl)pyrimidin-2-yl]morpholine], the pIC50 was ≥ 6.00.

With `Cc1ccc(-c2cc(N3CCN(c4ncccc4C#N)C[C@H]3C)nc(N3CCOCC3)n2)cc1F` [Example 493, 2-{(3R)-4-[6-(3-fluoro-4-methylphenyl)-2-morpholin-4-ylpyrimidin-4-yl]-3-methylpiperazin-1-yl}nicotinonitrile] the pIC50 was ≥ 6.00.
